Patent US20230172874A1, “USE OF CANNABIDIOL FOR THE TREATMENT OF INSOMNIA ASSOCIATED TO PAIN” (priority 2021, published 2023)
“Also recorded” adds a separate entry of the source.

System: neuropathic rats
Experiment: EEG power spectra (delta, theta, sigma bands) during NREM and REM sleep
Type: in vivo, male Wistar rats
Experimental: EEG and EMG recording. Six days after surgery (16 days post-SNI), mechanical allodynia was assessed via von Frey test, and EEG/EMG was recorded for a period of 6 h (from 6 AM to 12 PM). The treatments (described below) were performed at 6:00 A.M., right after the recording had started. […] Consecutive 10 s epochs were subjected to a fast Fourier transform (FFT), and EEG power spectra density was computed in the frequency range of 0-64 Hz^13.
To determine the variations in power spectra induced by the pharmacological treatment of CBD and antagonists, the power densities were summed up over the frequency band of 0-25 Hz (total power). The data were then standardized by expressing all power spectral densities at the different 0.5 Hz bin frequency ranges (delta, theta, and sigma) as a percentage relative to the total power of the same epoch^16. Frequency ranges were 0-3.5Hz for delta, 4-8.5Hz for theta, and 11-14 Hz for sigma bands. The sum of power densities over a frequency band following treatments were expressed as the percentage difference from that in or naïve+veh or NP+vehicle group in statistical analysis. In the experiments with WAY 100635 the NP+CBD was compared with NP+vehicle, NP+WAY, NP+WAY+CBD.
To assess whether CBD (20 mg/kg) might affect the microarchitecture during the sleep, the intensity Delta (0.5-4 Hz), Theta ([…]) and Sigma (10-15 Hz) waves were measured during 6 hours of light phase in the 3 groups of rats (Naïve, SNI+VEH and SNI+CBD 20mg/kg). Data were converted as a percentage of variation vs. naive animals and One-way ANOVA was performed on the power of delta, theta and sigma waves during NREM and REN sleep.
To assess whether the 5-HT1A selective antagonist WAY 100635 (2 mg/kg) might reverse the effect of CBD (20 mg/kg) in the enhancement of power density (Delta, Theta, and Sigma waves) during sleep, the power spectra were measured for 6 hours in four groups of rats. The first group were NP rats treated with CBD vehicle (n=8), the second group were NP rats treated with WAY 100635 alone at 2 mg/kg (n=6), the third group were NP rats treated with WAY 100635 (2 mg/kg)+CBD (20 mg/kg; n=6), and the fourth group were NP treated with CBD at 20 mg/kg (n=8). Data were converted as a percentage of variation vs NP animals treated with vehicle.

C=C(C)[C@@H]1CCC(C)=C[C@H]1c1c(O)cc(CCCCC)cc1O [CBD, 2-[(1R,6R)-3-methyl-6-prop-1-en-2-ylcyclohex-2-en-1-yl]-5-pentylbenzene-1,3-diol]
power of Sigma waves during REM sleep, relative to NP rats treated with vehicle (6 h, CBD 20 mg/kg): no statistically significant differences between groups; also recorded: no differences were found
power of Theta waves during REM sleep, relative to NP animals treated with vehicle (6 h, CBD 20 mg/kg): no statistically significant differences between groups
power of theta waves during NREM sleep, relative to NP animals treated with vehicle (6 h, CBD 20 mg/kg i.p.): increases the intensity of the Theta waves; also recorded: increase in the theta power
Sigma waves during NREM sleep, relative to NP rats treated with vehicle (6 h, CBD 20 mg/kg, WAY 100635 2 mg/kg): no significant main effects; also recorded: did not detect differences
power of Delta waves during NREM sleep, relative to NP rats treated with vehicle (6 h light phase, CBD 20 mg/kg i.p.): increase in the intensity of the power of Delta waves
power of Delta waves during REM sleep, between groups (ANOVA) (NP rats, 6 h, CBD 20 mg/kg, WAY 100635 2 mg/kg): no statistically significant differences between groups
